For the test, the system named is insulated, electrically stimulated left atrium of the guinea pig. The test is described as follows: Therapeutic effect and therapeutic spectrum at the insulated, electrically stimulated left atrium of the guinea pig. The test is classed as cell-based. The conditions noted are these: mean and average deviation; for EC50 / Emax: Cavia porcellus; for Emax: in percentage of the decrease of the amplitude by reduction of the calcium content (1.8 to 0.45 mVal), read-out: Contraction Amplitude maximum increase (%); for Contraction Amplitude maximum increase: maximum contraction amplitude with increasing glycoside concentrations, calcium reduced from 1.8 to 0.45 mVal, 31° C, 3 Hz; for therapeutic spectrum: quotient EC50 decrease/EC50 increase. The method, then: Comparison of the therapeutic spectrum of various cardioactive glycosides was undertaken, employing electrical stimulation of the insulated left atrium of guinea pigs. Specifically, the left atrium was suspended in Tyrode solution at 31° C and electrically stimulated by a frequency of 3 Hz with rectangular impulses of 2 m sec. duration and optimum tension. The maximum contraction strength was registered semi-isometrically.
When a constant contraction amplitude has set in, the calcium concentration was reduced from 1.8 to 0.45 mVal. The initial tension was adjusted to 1 g at the start of the test; if necessary, it was adjusted after the readjustment to a solution poor in calcium, however, no longer changed during the further course of the experiment.
Of the glycosides to be tested, stock solutions were prepared in dimethyl acetamide and, for the test with NaCl-solution so diluted that the stated end concentrations were obtained with the addition of 0.1 ml to a bath volume of 80 ml. It was determined in preliminary tests that up to 0.4 ml undiluted dimethyl acetamide were tolerated without influencing the contractility.
If, after reduction of the calcium concnetration, a constant degree of contraction was again obtained after approximately 10 minutes, concentrations of the glycoside to be tested were added in the ratio 1 + 1 + 2 + 4, etc. The period between the individual additions was 15 minutes.
Prior to the change-over to a calcium-poor Tyrode solution and prior to each addition of glycoside, as well as 15 minutes after the last dose, the prestress was measured in grams and the contraction amplitude in mg. The difference of the amplitude was calculated from the test values for the contraction amplitude after reduction of the calcium content. The difference between the contraction amplitude before and after the change-over to a calcium-poor solution was put as equal to 100% amplitude reduction.
It was determined for each individual atrium when, with administration of increasing concentrations of the glycosides, there was obtained
the maximum contraction amplitude ("maximum increase");
increase of the amplitude to 50% of the difference between normal and reduced calcium content ("EC50 increase");
decrease of the contraction amplitude to the same height ("EC50 decrease");
the therapeutic spectrum quotient of the two EC50, i.e. EC50 decrease/EC50 increase.
With these evaluation processes, there are obtained numerical data for the concentration and the period during which the corresponding effect was observed. In order to obtain a uniform basis for the evaluation, differences in the time of the appearance were converted into concentrations according to the following method:
The logarithm of the concentration was graphically plotted against the time in such manner that the lowest concentration was put at 15 minutes, the next higher one at 30 minutes, etc. The evaluation of the tests yielded the time after the start of the test at which the respective effect had appeared. The concentration pertaining to it was read from the diagram.
This procedure is based on the assumption that the concentration increases exponentially at the place of the effect. De facto this assumption is more correct than a regular increase in concentration in stages in the bath liquid since there is a substantial time lapse between the increase of the concentration in the bath and in the tissue.
In addition, the maximum degree of […] was measured in all tests under the influence of the glycosides and in percentage of the decrease of the amplitude by reduction of the calcium content.

The mark [1] stands for this setting: decrease of the contraction amplitude to the same height (50%) at higher concentrations, read-out: EC50 decrease.
The mark [2] stands for this setting: increase of the amplitude to 50% of the difference between normal and reduced calcium content, read-out: EC50 increase.

Read-outs that look alike come from different tables or passages of the source.

By EC50 is commonly meant the concentration that produces a half-maximal response. As for `C[C@H]1O[C@@H](O[C@H]2[C@@H](O)C[C@H](O[C@H]3[C@@H](O)C[C@H](O[C@H]4CC[C@@]5(C)[C@H](CC[C@@H]6[C@@H]5C[C@H](O)[C@]5(C)[C@@H](C7=CC(=O)OC7)CC[C@]65O)C4)O[C@@H]3C)O[C@@H]2C)C[C@H](O)[C@@H]1O` [Example 1, 12-Epi-digoxin], the Emax stood at 92 ± 6.5%, the “Contraction Amplitude maximum increase” value is 746 ± 56 mg and the therapeutic spectrum is on record as 4.49±0.35. Further, the 50% effective concentration (EC50) under setting [1] amounted to 2.48 ± 0.3 µM. Also, under setting [2], the EC50 is 0.557 ± 0.07 µM.

Consider `CO[C@H]1[C@@H](O)C[C@H](O[C@H]2[C@@H](O)C[C@H](O[C@H]3[C@@H](O)C[C@H](O[C@H]4CC[C@@]5(C)[C@H](CC[C@@H]6[C@@H]5C[C@H](O)[C@]5(C)[C@@H](C7=CC(=O)OC7)CC[C@]65O)C4)O[C@@H]3C)O[C@@H]2C)O[C@@H]1C` [Example 2, 12-Epi-β-methyldigoxin], for which the Emax was found to be 96 ± 6.3%, the “Contraction Amplitude maximum increase” value was determined as 666 ± 78 mg and the therapeutic spectrum is on record as 8.86±1.17. Under setting [1], the EC50 worked out at 2.78 ± 0.4 µM. Besides, the 50% effective concentration (EC50) under setting [2] was 0.315 ± 0.02 µM.

As for `CC(=O)O[C@H]1C[C@H](O[C@H]2[C@@H](O)C[C@H](O[C@H]3[C@@H](O)C[C@H](O[C@H]4CC[C@@]5(C)[C@H](CC[C@@H]6[C@@H]5C[C@H](O)[C@]5(C)[C@@H](C7=CC(=O)OC7)CC[C@]65O)C4)O[C@@H]3C)O[C@@H]2C)O[C@H](C)[C@H]1O` [Example 5, α-Acetyl-12-epi-digoxin], the therapeutic spectrum is 3.40±0.40. The EC50 under setting [1] came out at 2.78 ± 0.28 µM. Moreover, the EC50 under setting [2] is 0.848 ± 0.09 µM.

`CC(=O)O[C@H]1[C@@H](O)C[C@H](O[C@H]2[C@@H](O)C[C@H](O[C@H]3[C@@H](O)C[C@H](O[C@H]4CC[C@@]5(C)[C@H](CC[C@@H]6[C@@H]5C[C@H](O)[C@]5(C)[C@@H](C7=CC(=O)OC7)CC[C@]65O)C4)O[C@@H]3C)O[C@@H]2C)O[C@@H]1C` [Example 6, β-Acetyl-12-epi-digoxin] showed a therapeutic spectrum of 4.25±0.51. Moreover, the EC50 under setting [1] was 3.76 ± 0.25 µM. In addition, under setting [2], the 50% effective concentration (EC50) stood at 0.921 ± 0.07 µM.

The compound `CC(=O)O[C@H]1C[C@H]2[C@@H](CC[C@@H]3C[C@@H](O[C@H]4C[C@H](O)[C@H](O[C@H]5C[C@H](O)[C@H](O[C@H]6C[C@H](O)[C@H](O)[C@@H](C)O6)[C@@H](C)O5)[C@@H](C)O4)CC[C@@]32C)[C@@]2(O)CC[C@H](C3=CC(=O)OC3)[C@@]12C` [Example 7, 12-Acetyl-12-epi-digoxin] yielded a therapeutic spectrum of 5.15±0.71. Moreover, the EC50 under setting [1] was 13.8 ± 0.81 µM. Also, the EC50 under setting [2] came to 2.86 ± 0.31 µM.

In turn, `CCC1=C([C@H]2CC[C@]3(O)[C@@H]4CC[C@@H]5C[C@@H](O[C@H]6C[C@H](O)[C@H](O[C@H]7C[C@H](O)[C@H](O[C@H]8C[C@H](O)[C@H](O)[C@@H](C)O8)[C@@H](C)O7)[C@@H](C)O6)CC[C@]5(C)[C@H]4C[C@H](O)[C@]23C)COC1=O` [Example 9, 22-Ethyl-12-epi-digoxin] displayed a therapeutic spectrum of 6.39±0.96. Besides, the EC50 under setting [1] amounted to 39.3 ± 3 µM. Moreover, under setting [2], the EC50 came to 6.63 ± 0.75 µM.

In turn, `CO[C@H]1[C@@H](O)C[C@H](O[C@H]2[C@@H](O)C[C@H](O[C@H]3[C@@H](O)C[C@H](O[C@H]4CC[C@@]5(C)[C@H](CC[C@@H]6[C@@H]5C[C@H](O)[C@]5(C)[C@@H](C7=C(C)C(=O)OC7)CC[C@]65O)C4)O[C@@H]3C)O[C@@H]2C)O[C@@H]1C` [Example 12, 22-Methyl-12-epi-β-methyldigoxin] returned a therapeutic spectrum of 5.15±0.59. In addition, the EC50 under setting [1] worked out at 17 ± 1.7 µM. Further, the concentration giving a half-maximal response (EC50) under setting [2] amounted to 3.55 ± 0.41 µM.

In turn, `CCC1=C([C@H]2CC[C@]3(O)[C@@H]4CC[C@@H]5C[C@@H](O[C@H]6C[C@H](O)[C@H](O[C@H]7C[C@H](O)[C@H](O[C@H]8C[C@H](O)[C@H](OC)[C@@H](C)O8)[C@@H](C)O7)[C@@H](C)O6)CC[C@]5(C)[C@H]4C[C@H](O)[C@]23C)COC1=O` [Example 13, 22-Ethyl-12-epi-β-methyldigoxin] returned a therapeutic spectrum of 7.10±0.74. In addition, under setting [1], the 50% effective concentration (EC50) turned out to be 40.5 ± 2.6 µM. Also, the EC50 under setting [2] is 5.9 ± 0.48 µM.

In the case of `CO[C@H]1[C@@H](O)C[C@H](O[C@H]2[C@@H](O)C[C@H](O[C@H]3[C@@H](O)C[C@H](O[C@H]4CC[C@@]5(C)[C@H](CC[C@@H]6[C@@H]5C[C@H](O)[C@]5(C)[C@@H](C7=C(C(C)C)C(=O)OC7)CC[C@]65O)C4)O[C@@H]3C)O[C@@H]2C)O[C@@H]1C` [Example 14, 22-Isopropyl-12-epi-β-methyldigoxin], the therapeutic spectrum amounted to 3.08±0.45. Also, the 50% effective concentration (EC50) under setting [1] was found to be 61.9 ± 5.2 µM. Besides, the EC50 under setting [2] came out at 21.6 ± 1.9 µM.

In the case of `CO[C@H]1[C@@H](O)C[C@H](O[C@H]2[C@@H](O)C[C@H](O[C@H]3[C@@H](O)C[C@H](O[C@H]4CC[C@@]5(C)[C@H](CC[C@@H]6[C@@H]5C[C@H](OC(C)=O)[C@]5(C)[C@@H](C7=CC(=O)OC7)CC[C@]65O)C4)O[C@@H]3C)O[C@@H]2C)O[C@@H]1C` [Example 18, 12-Acetyl-12-epi-β-methyldigoxin], the therapeutic spectrum was determined as 6.50±1.5. For the same compound, under setting [1], the EC50 worked out at 25.6 ± 2.9 µM. The EC50 under setting [2] came out at 4.71 ± 0.81 µM.

`C#CCC1=C([C@H]2CC[C@]3(O)[C@@H]4CC[C@@H]5C[C@@H](O[C@H]6C[C@H](O)[C@H](O[C@H]7C[C@H](O)[C@H](O[C@H]8C[C@H](O)[C@H](OC)[C@@H](C)O8)[C@@H](C)O7)[C@@H](C)O6)CC[C@]5(C)[C@H]4C[C@H](O)[C@]23C)COC1=O` [Example 26, 22-Propargyl-12-epi-β-methyldigoxin] came in with a therapeutic spectrum of 3.94±1.0. Further, the EC50 under setting [1] worked out at 14.6 ± 1.4 µM. The EC50 under setting [2] came to 4.46 ± 0.75 µM.

For `CO[C@H]1[C@@H](O)C[C@H](O[C@H]2[C@@H](O)C[C@H](O[C@H]3[C@@H](O)C[C@H](O[C@H]4CC[C@@]5(C)[C@H](CC[C@@H]6[C@@H]5C[C@@H](O)[C@]5(C)[C@@H](C7=CC(=O)OC7)CC[C@]65O)C4)O[C@@H]3C)O[C@@H]2C)O[C@@H]1C` [methyldigoxina., β-methyldigoxin, reference compound], the Emax worked out at 75 ± 5%, the “Contraction Amplitude maximum increase” value is 292 ± 56 mg and the therapeutic spectrum came out at 3.06±0.36. The EC50 under setting [1] was 0.66 ± 0.04 µM. Also, under setting [2], the concentration giving a half-maximal response (EC50) was found to be 0.23 ± 0.03 µM.

Source of the values: US4107299A, “Cardioactive 12-epi-digoxin and derivatives thereof” (Boehringer Mannheim GmbH, priority 1975, dated 1978).
